This passage reports GI50 and TGI results from PubChem BioAssay (NCI).

Where “and” joins values, the source holds several entries; their conditions need not be identical. Identical values can stand only once.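 96-well plates; 48 h exposure; 5 concentrations. Endpoints by linear interpolation between flanking doses. Not reached: highest tested concentration assigned. Abbreviation: GI50, concentration required for 50% inhibition of growth. TGI: total growth inhibition.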 Some results are limits rather than exact numbers.

Common to all, as to assay: growth of human tumour cells (NCI), 48 h
Assay [1] relates to SK-MEL-5 melanoma.
Assay [2] relates to HCT-116 colon.
Assay [3] deals with CCRF-CEM leukemia.
The subject of assay [4] is U251 CNS.
Assay [5] has as its system MDA-MB-435.
For assay [6], the system named is SK-MEL-28 melanoma.
In assay [7] the test system is SNB-19 CNS.
In assay [8] the test system is SF-295 CNS.
For assay [9], the system named is MOLT-4 leukemia.
Assay [10] concerns SF-539 CNS.

In the case of `CCCCCCc1cc2cc(-c3nc4ccccc4[nH]3)c(=Nc3ccccc3C)oc2cc1O`, the GI50 in [1] was 2 µM; in assay [2], 1.83 µM; in assay [3] it was 2.77 µM; in assay [4], 1.71 µM; in [5] it was 2.16 µM; in [6], 1.88 µM. The GI50 was 3.58 µM in [7], 4.24 µM in assay [8], 3.9 µM in assay [9] and 1.83 µM in [10]. Besides, the TGI in [1] amounted to 4.96 µM; in assay [2], 3.63 µM; in assay [3] it was 9.59 µM; in assay [4] it was 3.3 µM; in assay [5], 5.05 µM; in assay [6], 3.73 µM. Besides, the TGI in assay [7] was 22 µM; in assay [8], 17.8 µM; in [9] it was 22.5 µM; in assay [10] it was 3.75 µM.

As for `CCC[CH2][Sn]([CH2]CCC)([O]C(=O)c1cc(F)ccc1F)[O][Sn]([CH2]CCC)([CH2]CCC)[O]C(=O)c1cc(F)ccc1F`, the GI50 in [1] is 0.626 µM; in assay [2], 0.293 µM; in assay [3], 0.0113 µM; in assay [4], 0.175 µM; in assay [5], 0.446 µM; in [6], 0.169 µM. Also, the GI50 in [7] is 0.667 µM; in assay [8], 0.606 µM; in assay [9] it was 0.111 µM; in assay [10], 0.386 µM. Also, the TGI in assay [1] stood at 1.83 µM; in assay [2] it was 1.24 µM; in assay [3] it was 2.7 µM; in assay [4], 0.584 µM; in assay [5], 1.67 µM; in assay [6], 0.497 µM. Also, the TGI in assay [7] amounted to 1.76 µM; in assay [8], 1.85 µM; in [10] it was 1.22 µM.

`Cc1ccc2c(c1)c1nc3cc(C)c(C)cc3nc1n2CCN(C)C`: the GI50 in assay [1] is 1.77 µM; in [2], 0.63 µM; in [3], 2.05 µM; in assay [4] it was 2.3 µM; in assay [5] it was 1.98 µM; in [6], 2.55 µM. In addition, the GI50 in [7] was 2.5 µM; in [8], 2.37 µM; in assay [9] it was 1.73 µM; in assay [10] it was 2.15 µM. Also, the TGI was determined as 3.18 µM in assay [1]; 10.1 µM in [2]; 10.6 µM in assay [3]; 8.85 µM in assay [4]; 4.42 µM in [5]; 5.46 µM in assay [6]. For the same molecule, the TGI in assay [7] was found to be 9.88 µM; in [8], 6.62 µM; in [9] it was 16.3 µM; in assay [10], 6.13 µM.

For `Cc1ccc(NC(=O)Cc2ccc(/C=C/C(=O)c3ncc[nH]3)cc2)cc1`, the GI50 in assay [1] is 18.3 µM; in assay [2] it was 3.28 µM; in assay [3], 4.67 µM; in [4], 1.59 µM; in assay [5], 5.68 µM; in assay [6] it was 11.5 µM. Besides, the GI50 in [7] was 6.65 µM; in assay [8], 7.9 µM; in assay [9], 5.33 µM; in assay [10], 4.77 µM. The TGI in assay [1] was > 25 µM; in assay [2], 9.59 µM; in assay [3], > 25 µM; in assay [4] it was > 25 µM; in assay [5], > 25 µM; in assay [6] it was > 25 µM. The TGI was > 25 µM in assay [7], > 25 µM in assay [8], > 25 µM in assay [9] and 14 µM in [10].

As to `S=C(N/N=C(/c1ccccc1)c1ccccn1)N1CCCCC1`, the TGI in assay [1] was 1.38 µM and 1.56 µM; in [2] it was 1.6 µM and 1.56 µM; in [3], 0.0332 µM; in assay [4] it was 1.45 µM and 1.76 µM; in [5] it was 1.98 µM and 1.85 µM; in assay [6] it was 2.55 µM and 2.82 µM. For the same molecule, the TGI in assay [7] was 2.9 µM and 5.49 µM; in assay [8] it was 1.75 µM and 2.11 µM; in assay [10] it was 1.85 µM and 2.09 µM. Moreover, the GI50 in [2] is < 0.001 µM; in [3], < 0.001 µM; in [4] it was < 0.001 µM; in assay [6], 1.08 µM; in [7] it was 1.1 µM; in assay [8], 0.188 µM. The GI50 in [9] was < 0.001 µM; in assay [10] it was 0.265 µM.

Take `COc1ccc(-n2cc(-c3cc(OC)c(OC)c(OC)c3)nc2SCc2ccccc2)cc1`: the GI50 is 8.54 µM in assay [1]; 17.5 µM in assay [2]; 3.63 µM in [3]; 43.8 µM in [4]; > 100 µM in assay [5]; 76.6 µM in assay [6]. The GI50 in [7] is > 100 µM; in assay [8], > 100 µM; in assay [9], 9.03 µM; in assay [10], > 100 µM. In addition, the TGI in [1] was 56.7 µM; in [2], > 100 µM; in assay [3] it was > 100 µM; in assay [4] it was > 100 µM; in [5] it was > 100 µM; in [6], > 100 µM. Moreover, the TGI in assay [7], in [8], in assay [9] and in assay [10] was > 100 µM each time.

With `N#C/C(=N\Nc1ccc(Cl)cc1)C(=O)Nc1cc(-c2ccccc2)nn1-c1ccccc1`, the GI50 was 1.63 µM in assay [1]; 2.7 µM in [2]; 2.27 µM in [3]; 3.08 µM in assay [4]; 2.79 µM in assay [5]; 3.62 µM in [6]. Also, the GI50 in assay [7] is 3.17 µM; in assay [8], 2.86 µM; in [9] it was 3.5 µM; in assay [10], 3.29 µM. Also, the TGI in assay [1] was 4.27 µM; in assay [2] it was > 100 µM; in assay [3], > 100 µM; in assay [4], > 100 µM; in assay [5], > 100 µM; in assay [6] it was > 100 µM. For the same molecule, the TGI in assay [7], in [8], in [9] and in assay [10] was > 100 µM in each case.

In the case of `Cc1cc(Cl)cc2c(N=Nc3ccccc3[N+](=O)[O-])c(O)[nH]c12`, the TGI in assay [1], in [2], in [3], in assay [4], in assay [5] and in assay [6] was > 100 µM each time. The TGI in [7], in [8], in [9] and in [10] was > 100 µM throughout.
